Experimental data: article PMC1976386 (Molecular Microbiology, 2007)

Biological target: CaKip1p (Candida albicans, UniProt A0A1D8PT88)
Settings: read-out: Value

Km: 7.4 ± 0.7 µM
SMILES: Nc1ncnc2c1ncn2[C@@H]1O[C@H](COP(=O)(O)OP(=O)(O)OP(=O)(O)O)[C@@H](O)[C@H]1O [ATP]
